The results in this text go back to paper PMC4071596, “Eurothiocin A and B, Sulfur-Containing Benzofurans from a Soft Coral-Derived Fungus Eurotium rubrum SH-823” (Marine Drugs, 2014).

One series has as its target α-glucosidase (Saccharomyces cerevisiae, UniProt P53341). Briefly: α-Glucosidase inhibitory activity assay (p-nitrophenyl-α-glucopyranoside hydrolysis, absorbance at 400 nm). Format: biochemical. To be noted: for type of inhibition of α-glucosidase (Lineweaver-Burk plot method): kinetic studies at increasing concentration of substrates and inhibitors. Here is the method:
α-Glucosidase was assayed according to standard procedures by following the hydrolysis of nitrophenyl glycosides by monitoring formation of p-nitrophenol spectrometrically at 400 nm. The reaction mixture (final volume, 1 mL) consisted of the enzyme solution (20 μL, Sigma 9001-42-7, E.C 3.2.1.20), substrate (10 mM p-nitrophenyl-α-glucopyranoside, 20 μL, Fluka, BioChemika, Buchs, Switzerland) in 50 mM potassium phosphate buffer (pH 7.0) and test sample dissolved in DMSO (20 μL). The inhibitors were pre-incubated with the enzyme at 37 °C for 30 min, and the substrate was then added. The reaction was monitored spectrophotometrically by measuring the absorbance at 400 nm. […] The inhibitory activity of test compound was determined as a percentage in comparison to a blank according with the following equation: The inhibition rates (%) = [(ODcontrol − ODcontrol blank) − (ODtest − ODtest blank)]/(ODcontrol − ODcontrol blank) × 100%. The IC50 values of compounds were calculated by the nonlinear regression analysis and expressed as the mean ± SD of two distinct experiments. Kinetic parameters were determined using the Lineweaver-Burk double-reciprocal plot method at increasing concentration of substrates and inhibitors.

Sequence of α-glucosidase (P53341 whole entry): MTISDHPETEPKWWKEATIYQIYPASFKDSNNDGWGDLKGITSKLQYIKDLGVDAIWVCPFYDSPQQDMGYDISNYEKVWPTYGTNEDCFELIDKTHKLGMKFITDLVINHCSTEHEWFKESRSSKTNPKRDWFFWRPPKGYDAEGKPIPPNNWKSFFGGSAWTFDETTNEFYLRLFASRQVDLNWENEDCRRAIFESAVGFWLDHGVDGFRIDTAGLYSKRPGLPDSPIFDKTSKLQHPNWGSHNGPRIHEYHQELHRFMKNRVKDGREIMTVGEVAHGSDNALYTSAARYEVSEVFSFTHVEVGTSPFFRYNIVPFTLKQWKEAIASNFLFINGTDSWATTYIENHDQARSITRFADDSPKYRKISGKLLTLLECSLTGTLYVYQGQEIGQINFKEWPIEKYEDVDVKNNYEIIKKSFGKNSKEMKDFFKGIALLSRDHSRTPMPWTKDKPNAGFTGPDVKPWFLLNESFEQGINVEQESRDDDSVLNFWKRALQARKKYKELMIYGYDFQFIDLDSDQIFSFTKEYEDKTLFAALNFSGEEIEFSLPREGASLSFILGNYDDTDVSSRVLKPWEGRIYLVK

Consider `CSC(=O)c1c(C)cc2c(c1O)CC(C(C)(C)O)O2` (stereo not shown) [Compound 1, eurothiocin A], for which the “type of inhibition of α-glucosidase (Lineweaver-Burk plot method)” value at α-glucosidase was “competitive inhibitors”.

Usually melting point stands for the temperature of the solid-liquid transition. As to `CSC(=O)c1c(C)cc2c(c1O)CC(C(C)(O)CO)O2` (stereo not shown) [Compound 2, eurothiocin B], the melting point was 122 to 123 °C. Moreover, the “type of inhibition of α-glucosidase (Lineweaver-Burk plot method)” value at α-glucosidase is “competitive inhibitors”.

The term IC50 denotes the concentration needed to halve the response being measured. With butyrolactone I [Compound 4], the IC50 against α-glucosidase (mean ± SD from two independent experiments, pre-incubated with the enzyme at 37 °C for 30 min, pH 7.0) came to 98.5 ± 3.3 µM.
